Experiment: Solubility evaluation in organic solvent
Assay type: physicochemical
Conditions: for Solubility Chlorobenzene / Solubility Toluene: 30 mg compound made up to 1.0 g solution, rolled at room temperature for 1 hour, 0.2 μm syringe filter
Procedure: An organic solvent was added to 30 mg of each compound, and mixed until the total weight of each solution became 1.0 g. The mixture was rolled at room temperature for 1 hour, and then filtered with a syringe filter (Acrodisc Company) whose average pore diameter was 0.2 μm. Herein, solubility and film-forming properties were compared based on CBP, which is a generally-used host compound.
(1) Solubility Evaluation Method: solubility was determined by removing the filtered solution of the solvent and measuring the mass of the remaining solid, and the result is shown in the following Table 1. […]

Row | Compound | Solubility Chlorobenzene (chlorobenzene) | Solubility Toluene (toluene) | Solubility in chlorobenzene (in words) (chlorobenzene) | Solubility in toluene (in words) (toluene)
1 | c1ccc(-n2c3ccccc3c3c4c5ccccc5n(-c5ccccc5)c4ccc32)cc1 [Chem. Form. 20] | equal to 3 wt % | equal to 3 wt % |  | 
2 | c1ccc2c(c1)c1ccccc1n2-c1ccc(-c2ccc(-n3c4ccccc4c4ccccc43)cc2)cc1 [CBP, 4,4-N,N-dicarbazolebiphenyl, reference compound] | 1 wt % | equal to 0.5 wt % | part of the CBP was dissolved | little CBP was dissolved
3 | c1cncc(-c2nnc(-c3cc(-c4ccc5c(c4)C4(c6ccccc6-c6ccccc64)c4ccccc4-5)cc(-c4ccc5c(c4)C4(c6ccccc6-c6ccccc64)c4ccccc4-5)c3)o2)c1 [Chem. Form. 44] | equal to 3 wt % | equal to 3 wt % |  | 
4 | c1ccc(-n2c3ccccc3c3ccc4c5ccccc5n(-c5ccccc5)c4c32)cc1 [Chem. Form. 38] | equal to 3 wt % | equal to 3 wt % |  | 
5 | c1ccc(-c2nnc(-c3ccc(-c4ccc5c(c4)C4(c6ccccc6-c6ccccc64)c4ccccc4-5)cc3)o2)cc1 [Chem. Form. 43] | equal to 3 wt % | equal to 3 wt % |  | 

Source: patent publication US20120273764A1, “COMPOSITION FOR ORGANIC PHOTOELECTRIC DEVICE, ORGANIC PHOTOELECTRIC DEVICE USING THE SAME, AND DISPLAY DEVICE INCLUDING THE SAME” (CHEIL INDUSTRIES, INC., priority 2009, published 2012)
